Values after ≈ are worked out from the molar mass of the structure shown.
Assays:
[1] = molecular target: PD-1 and PD-L1 (Homo sapiens, UniProt Q9NZQ7); details: as disclosed in patent CN109988144A; cited from earlier work
[2] = Solid-state stability: content and related substances by HPLC; assay type: physicochemical
Experimental: (§1) The samples of crystal forms A, B, and C were weighed and added to a 20 mL colorless transparent glass bottle, respectively, and the sample bottles were respectively placed under the corresponding influencing factors and acceleration conditions (the sample bottles under humidity conditions were sealed with tin foil and placed with holes, and the other samples were covered tightly and placed), taken out after being placed for 1 week and 2 weeks respectively, and the sample content and related substances under various conditions were detected by HPLC; according to the same method as above, samples were respectively weighed and placed under a corresponding influencing factor and accelerated condition, and were taken out after being placed for 2 weeks for observing the appearance and XRPD characterization of each sample, and the physical stability of each crystal form was examined, and the test methods are detailed in table 14 and table 15; at the same time, 2 samples of the crystal forms A, B, and C of the compound as shown in formula I were respectively weighed accurately into 20 mL colorless transparent glass bottles and covered tightly, placed in a −20° C. refrigerator, and taken out as a standard for HPLC analysis at 2 weeks, and the test results are detailed in table 16 and table 17.

[3] = Dynamic vapor sorption (DVS) analysis; assay type: physicochemical; details: 25° C.; for hygroscopicity: assessment in words
Experimental: (§2) The hygroscopic characteristics of the sample were tested when the humidity changed from 0% RH to 95% RH, and the dehumidifying characteristics of the sample were tested when the humidity changed from 95% RH to 0% RH. The humidity change in each step size was 5% RH, the equilibrium standard was that the weight change rate within 10 min was less than 0.01%/min, and the longest equilibrium time was 2 hours.
as §2, with “5” for “10”

[4] = Solid-state stability: appearance and crystal form (XRPD); assay type: physicochemical; details: for physical stability: four storage conditions
Experimental: as §1

[5] = Equilibrium solubility and dissolution rate in water, SGF, FaSSIF, FeSSIF; assay type: physicochemical; details: for solubility at 0.5 h / solubility at 2 h / solubility at 24 h: 37 °C, thermodynamic from solid; for Solubility: 37° C.
Experimental: To further study whether the equilibrium solubility and dissolution rate of crystal forms A, B and C are different in pure water and physiological related media in vivo, the equilibrium solubility and dissolution rate of […] crystal forms in water, simulated gastric fluid (SGF), fasted-state simulated intestinal fluid (FaSSIF) and fed state simulated intestinal fluid (FeSSIF) were tested respectively.

[6] = Acceleration (40° C./75% RH), 1 week
[7] = Acceleration (40° C./75% RH), 2 weeks
[8] = High humidity (92.5% RH), 1 week
[9] = High humidity (92.5% RH), 2 weeks
[10] = High temperature (60° C.), 1 week
[11] = High temperature (60° C.), 2 weeks
[12] = illumination (4500 LuX), 1 week
[13] = illumination (4500 LuX), 2 weeks
[14] = Illumination (4500 Lux), 2 weeks
[15] = high temperature, high humidity, illumination and acceleration, 2 weeks (conclusion)

Sequence of PD-1 and PD-L1 (Q9NZQ7 19-238 limits assumed): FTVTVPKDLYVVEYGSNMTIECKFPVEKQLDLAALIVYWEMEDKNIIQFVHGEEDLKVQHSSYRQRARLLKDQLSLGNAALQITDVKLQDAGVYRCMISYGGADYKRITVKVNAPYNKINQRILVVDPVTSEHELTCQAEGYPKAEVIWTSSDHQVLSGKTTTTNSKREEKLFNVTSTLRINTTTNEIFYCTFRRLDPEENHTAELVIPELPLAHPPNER

Cc1c(/C=C/c2cc(CN[C@@](C)(CO)C(=O)O)ccc2C(F)(F)F)cccc1-c1ccccc1 [Compound I]
inhibitory effect on the combination of PD-1 and PD-L1 [1]: strong inhibitory effect

Cc1c(/C=C/c2cc(CN[C@@](C)(CO)C(=O)O)ccc2C(F)(F)F)cccc1-c1ccccc1 [Crystal form A]
Content [2, 6]: 104.34% | Total related substances [2, 6]: 0.04% | Content [2, 7]: 104.13% | Total related substances [2, 7]: 0.03% | Total related substances ([2]; Control, −20° C., 2 weeks): 0.00% | Content [2, 8]: 104.75% | Total related substances [2, 8]: 0.10% | Content [2, 9]: 104.25% | Total related substances [2, 9]: 0.12% | Content [2, 10]: 100.69% | Total related substances [2, 10]: 0.02% | Content [2, 11]: 104.03% | Total related substances [2, 11]: 0.03% | Content [2, 12]: 96.10% | Total related substances [2, 12]: 3.94% | Content [2, 13]: 88.50% | Total related substances [2, 13]: 11.18% | hygroscopic weight gain ([3]; 80% RH): 0.310% | hygroscopic weight gain ([3]; 95% RH): 0.409% | hygroscopicity [3]: slightly hygroscopic | Appearance [4, 7]: Off-white | Crystal form (XRPD) after storage [4, 7]: Crystal form A | Appearance ([4]; Control, −20° C., 2 weeks): Off-white | Crystal form (XRPD) after storage ([4]; Control, −20° C., 2 weeks, listed as Crystal form A-Control): Crystal form A | Appearance [4, 9]: Off-white | Crystal form (XRPD) after storage [4, 9]: Crystal form A | Appearance [4, 11]: Off-white | Crystal form (XRPD) after storage [4, 11]: Crystal form A | Appearance [4, 14]: Off-white | Crystal form (XRPD) after storage [4, 14]: Crystal form A | physical stability ([4]; 2 weeks (conclusion)): good | Appearance [4, 15]: off-white | solubility at 0.5 h ([5]; FaSSIF as printed (second set of rows), fessif, FaSSIF, 0.5 hours): 183 µg/mL (≈ 389 µM) | solubility at 2 h ([5]; FaSSIF as printed (second set of rows), fessif, FaSSIF, 2 hours): 177 µg/mL (≈ 376 µM) | solubility at 24 h ([5]; FaSSIF as printed (second set of rows), fessif, FaSSIF, 24 hours): 170 µg/mL (≈ 363 µM) | Solubility ([5]; FaSSIF, 2 hours): 2.0 µg/mL (≈ 4.26 µM) | Solubility ([5]; SGF, 0.5 hours): 0.4 µg/mL (≈ 0.852 µM) | Solubility ([5]; SGF, 2 hours): 0.3 µg/mL (≈ 0.639 µM) | Solubility ([5]; SGF, 24 hours): 0.1 µg/mL (≈ 0.213 µM) | Solubility ([5]; Water, 24 hours): 6.1 µg/mL (≈ 13 µM) | solubility at 0.5 h ([5]; fasted-state simulated intestinal fluid (FaSSIF), fassif, 0.5 hours): 8.7 µg/mL (≈ 18.5 µM) | solubility at 24 h ([5]; fasted-state simulated intestinal fluid (FaSSIF), fassif, 24 hours): 4.3 µg/mL (≈ 9.16 µM) | solubility at 0.5 h ([5]; water, 0.5 hours): 1.5 µg/mL (≈ 3.19 µM) | solubility at 2 h ([5]; water, 2 hours): 6 µg/mL (≈ 12.8 µM)

Cc1c(/C=C/c2cc(CN[C@@](C)(CO)C(=O)O)ccc2C(F)(F)F)cccc1-c1ccccc1 [Crystal form B]
Content [2, 6]: 103.22% | Total related substances [2, 6]: 0.00% | Content [2, 7]: 101.60% | Total related substances [2, 7]: 0.00% | Total related substances ([2]; Control, −20° C., 2 weeks): 0.00% | Content [2, 8]: 100.09% | Total related substances [2, 8]: 0.00% | Content [2, 9]: 100.83% | Total related substances [2, 9]: 0.00% | Content [2, 10]: 100.70% | Total related substances [2, 10]: 0.00% | Content [2, 11]: 100.15% | Total related substances [2, 11]: 0.00% | Content [2, 12]: 100.02% | Total related substances [2, 12]: 0.39% | Content [2, 13]: 99.69% | Total related substances [2, 13]: 1.28% | hygroscopicity [3]: hygroscopic | weight gain ([3]; from 0% RH to 95% RH): 7.235% | Appearance [4, 7]: Off-white | Crystal form (XRPD) after storage [4, 7]: Crystal form B | Appearance ([4]; Control, −20° C., 2 weeks): Off-white | Crystal form (XRPD) after storage ([4]; Control, −20° C., 2 weeks, listed as Crystal form B-Control): Crystal form B | Appearance [4, 9]: Off-white | Crystal form (XRPD) after storage [4, 9]: Crystal form B | Appearance [4, 11]: Off-white | Crystal form (XRPD) after storage [4, 11]: Mixed crystal form | Crystal form (XRPD) after storage ([4]; High temperature (60° C.), 2 weeks, listed as crystal form B): converted into other crystal form | Appearance [4, 14]: Off-white | Crystal form (XRPD) after storage [4, 14]: Crystal form B | physical stability ([4]; 2 weeks (conclusion)): poor | Appearance [4, 15]: off-white | Solubility ([5]; FaSSIF (rows r12-r14), 0.5 hours, listed as B): 13.3 µg/mL (≈ 28.3 µM) | Solubility ([5]; FaSSIF (rows r12-r14), 2 hours, listed as B): 8.8 µg/mL (≈ 18.7 µM) | Solubility ([5]; FaSSIF (rows r12-r14), 24 hours, listed as B): 8.6 µg/mL (≈ 18.3 µM) | Solubility ([5]; FaSSIF as printed (second set, rows r15-r17), 0.5 hours, listed as B): 176.4 µg/mL (≈ 376 µM) | Solubility ([5]; FaSSIF as printed (second set, rows r15-r17), 2 hours, listed as B): 175.9 µg/mL (≈ 375 µM) | Solubility ([5]; FaSSIF as printed (second set, rows r15-r17), 24 hours, listed as B): 179.7 µg/mL (≈ 383 µM) | Solubility ([5]; SGF, 2 hours): 0.1 µg/mL (≈ 0.213 µM) | Solubility ([5]; SGF, 24 hours): 0.2 µg/mL (≈ 0.426 µM) | Solubility ([5]; Water, 0.5 hours): 2.5 µg/mL (≈ 5.32 µM) | Solubility ([5]; Water, 2 hours): 7.5 µg/mL (≈ 16 µM) | Solubility ([5]; Water, 24 hours): 1.2 µg/mL (≈ 2.56 µM) | solubility at 0.5 h ([5]; simulated gastric fluid (SGF), simulated gastric fluid, SGF, 0.5 hours): 0.5 µg/mL (≈ 1.06 µM)

— patent US12428369B2, “Crystal form of aromatic vinyl derivatives, and preparation method therefor and use thereof” (GUANGZHOU MAXINOVEL PHARMACEUTICALS CO., LTD., priority 2020, dated 2025)
